From paper PMC9065260 (Frontiers in Pharmacology, 2022)
Like-named read-outs stand apart in the source and are kept apart here. Each block holds one compound with its values, some of them ahead of it.

How the values were obtained:
KYSE450 cells [1] = experiment: Flow cytometry detection for cell apoptosis (Annexin V/PI); assay type: cell-based, human; settings: 48 h
Procedure: (§1) Cell apoptosis analysis was carried out by flow cytometry using the Annexin V/PI apoptosis methods. […] The cells were harvested and incubated with 250 μL of 1 × Annexin V binding buffer containing 5 μL of PI and 5 μL of FITC Annexin V (final concentration 1.8 μg/ml, Biolegend cat: 640945) for 15 min at room temperature in the dark. Then 200 µL of 1 × binding buffer was added for flow cytometry analysis (BD FACSCalibur™ Flow Cytometer).

KYSE450TR cells [2] = experiment: as above; assay type: cell-based, human; settings: 48 h
Procedure: as §1

KYSE410TR cells = experiment: MTT assay, drug-resistant cell line; assay type: cell-based, human
Procedure: (§3) The compounds were dissolved in DMSO to make a 50 mM stock solution and were diluted to the concentration of working solutions with the complete growth medium before administration.
(§4) Cells were seeded in 96-well plates with densities of 2,200–2,500 cells/well in 100 μL. One day after seeding, the concentration of the test compounds between 0 and 50 μM, 0.1% DMSO was added to cells as control. […] After 48 h, MTT was added and incubated in the plate for 1–4 h in the incubator.

KYSE70TR cells = experiment: MTT assay, drug-resistant cell line; assay type: cell-based, human
Procedure: as §3, §4

KYSE410 cells = experiment: MTT assay for cell proliferation and cytotoxicity; assay type: cell-based; settings: Homo sapiens, KYSE-410, 48 h, read-out: IC50 KYSE410
Procedure: as §3, §4

H1650TR cells = experiment: MTT assay, drug-resistant cell line; assay type: cell-based, human
Procedure: as §3, §4

[3] = system: human esophageal epithelial cell SHEE; experiment: MTT assay, toxicity against normal cells; assay type: cell-based; settings: Homo sapiens, read-out: IC50 SHEE
Procedure: Cells were seeded in 96-well plates with densities of 2,200–2,500 cells/well in 100 μL. One day after seeding, the concentration of the test compounds between 0 and 50 μM, 0.1% DMSO was added to cells as control. Approximately 2200-2500 transfected cells in 100 μL were incubated in quintuplicate in 96-well plates. After 48 h, MTT was added and incubated in the plate for 1–4 h in the incubator.

KYSE70 cells = experiment: MTT assay for cell proliferation and cytotoxicity; assay type: cell-based; settings: Homo sapiens, KYSE-70, 48 h, read-out: IC50 KYSE70
Procedure: as §3, §4

KYSE450TR cells [4] = experiment: MTT assay, drug-resistant cell line; assay type: cell-based, human
Procedure: as §3, §4

HCC827GR cells = experiment: MTT assay, drug-resistant cell line; assay type: cell-based, human
Procedure: as §3, §4

KYSE450 cells [5] = experiment: MTT assay for cell proliferation and cytotoxicity; assay type: cell-based; settings: Homo sapiens, KYSE-450, 48 h, read-out: IC50 KYSE450
Procedure: as §3, §4

H1650 cells = experiment: MTT assay for cell proliferation and cytotoxicity; assay type: cell-based; settings: Homo sapiens, NCI-H1650, 48 h, read-out: IC50 H1650
Procedure: as §3, §4

H1650 = experiment: Resistance index determination of drug resistance cell lines; assay type: cell-based; settings: Homo sapiens
Procedure: (§2) […]. Three types of esophageal cancer cell lines KYSE70TR, KYSE410TR, and KYSE450TR which were resistant to paclitaxel, and NSCLC cell lines HCC827GR and H1650TR, which were resistant to gefitinib and paclitaxel, respectively, were also tested for the comparison purpose.

KYSE 70 = experiment: as above; assay type: cell-based; settings: Homo sapiens
Procedure: as §2

KYSE 410 = experiment: as above; assay type: cell-based; settings: Homo sapiens
Procedure: as §2

KYSE 450 = experiment: as above; assay type: cell-based; settings: Homo sapiens
Procedure: as §2

H1650TR = experiment: as above; assay type: cell-based, human; settings: for IC50: Homo sapiens, H1650TR
Procedure: as §2

KYSE 410TR = experiment: as above; assay type: cell-based, human; settings: for IC50: Homo sapiens, KYSE 410TR
Procedure: as §2

KYSE 450TR = experiment: as above; assay type: cell-based, human; settings: for IC50: Homo sapiens, KYSE 450TR
Procedure: as §2

KYSE 70TR = experiment: as above; assay type: cell-based, human; settings: for IC50: Homo sapiens, KYSE 70TR
Procedure: as §2

IC50 (H1650TR cells; Homo sapiens, read-out: IC50 H1650TR, MTT, paclitaxel-resistant lung cancer cell line): > 10 µM
IC50 (H1650TR cells; read-out: IC50 H1650TR, MTT, paclitaxel-resistant lung cancer cell line): > 20 µM
IC50 (HCC827GR cells; Homo sapiens, read-out: IC50 HCC827GR, MTT, gefitinib-resistant lung cancer cell line): > 10 µM
IC50 (HCC827GR cells; read-out: IC50 HCC827GR, MTT, gefitinib-resistant lung cancer cell line): > 20 µM
SMILES: C#Cc1cccc(Nc2ncnc3cc(OCCOC)c(OCCOC)cc23)c1 [Erlotinib]
proportion of apoptotic cells (KYSE450 cells [1]; KYSE450, 5 μM): 7.04%
proportion of apoptotic cells (KYSE450 cells [1]; KYSE450, 10 μM): 8.94%
proportion of apoptotic cells (KYSE450TR cells [2]; 5 μM): 10.16%
proportion of apoptotic cells (KYSE450TR cells [2]; 10 μM): 16.68%
IC50 (KYSE410TR cells; Homo sapiens, read-out: IC50 KYSE410TR, MTT, paclitaxel-resistant esophageal cancer cell line): > 10 µM
IC50 (KYSE410TR cells; read-out: IC50 KYSE410TR, MTT, paclitaxel-resistant esophageal cancer cell line): > 20 µM
IC50 (KYSE70TR cells; Homo sapiens, read-out: IC50 KYSE70TR, MTT, paclitaxel-resistant esophageal cancer cell line): > 10 µM
IC50 (KYSE70TR cells; read-out: IC50 KYSE70TR, MTT, paclitaxel-resistant esophageal cancer cell line): > 20 µM
IC50 (KYSE410 cells): 5 ± 0.46 µM
IC50 [3]: 21 ± 2.11 µM
IC50 (KYSE70 cells): > 50 µM
IC50 (KYSE450TR cells [4]; Homo sapiens, read-out: IC50 KYSE450TR, MTT, paclitaxel-resistant esophageal cancer cell line): > 10 µM
IC50 (KYSE450TR cells [4]; read-out: IC50 KYSE450TR, MTT, paclitaxel-resistant esophageal cancer cell line): > 20 µM
IC50 (KYSE450 cells [5]): 7.6 ± 0.51 µM
IC50 (H1650 cells): 14 ± 1.19 µM

IC50 (H1650; NCI-H1650, 24 h, read-out: 24 h IC50): 870 ± 43.5 nM
IC50 (H1650; NCI-H1650, 48 h, read-out: 48 h IC50): 83.3 ± 3.33 nM
IC50 (KYSE 70; KYSE 70, 24 h, read-out: 24 h IC50): 640 ± 43 nM
IC50 (KYSE 70; KYSE 70, 48 h, read-out: 48 h IC50): 20.2 nM
IC50 (KYSE 410; KYSE 410, 24 h, read-out: 24 h IC50): 1280 ± 69.3 nM
IC50 (KYSE 410; KYSE 410, 48 h, read-out: 48 h IC50): 52 ± 3.45 nM
IC50 (KYSE 450; KYSE 450, 24 h, read-out: 24 h IC50): 55.03 ± 0.33 nM
IC50 (KYSE 450; KYSE 450, 48 h, read-out: 48 h IC50): 7.82 ± 0.84 nM
IC50 (H1650TR; 24 h, read-out: 24 h IC50): 4130 ± 208 nM
IC50 (H1650TR; 48 h, read-out: 48 h IC50): 645 ± 45 nM
IC50 (KYSE 410TR; 24 h, read-out: 24 h IC50): 6.4 ± 0.43 µM
IC50 (KYSE 410TR; 48 h, read-out: 48 h IC50): 1.71 ± 0.0864 µM
IC50 (KYSE 450TR; 24 h, read-out: 24 h IC50): 266 ± 66.1 nM
IC50 (KYSE 450TR; 48 h, read-out: 48 h IC50): 120 ± 32.1 nM
IC50 (KYSE 70TR; 24 h, read-out: 24 h IC50): 4.92 ± 0.274 µM
IC50 (KYSE 70TR; 48 h, read-out: 48 h IC50): 1.12 ± 0.0352 µM
SMILES: CC(=O)O[C@H]1C(=O)[C@@]2(C)[C@H]([C@H](OC(=O)c3ccccc3)[C@]3(O)C[C@H](OC(=O)[C@H](O)[C@@H](NC(=O)c4ccccc4)c4ccccc4)C(C)=C1C3(C)C)[C@]1(OC(C)=O)CO[C@@H]1C[C@@H]2O [paclitaxel]
Resistance index (H1650TR; H1650TR vs H1650, 24 h IC50): 4.74
Resistance index (H1650TR; H1650TR vs H1650, 48 h IC50): 7.74
Resistance index (KYSE 410TR; KYSE 410TR vs KYSE 410, 24 h IC50): 5
Resistance index (KYSE 410TR; KYSE 410TR vs KYSE 410, 48 h IC50): 32.88
Resistance index (KYSE 450TR; KYSE 450TR vs KYSE 450, 24 h IC50): 4.84
Resistance index (KYSE 450TR; KYSE 450TR vs KYSE 450, 48 h IC50): 15.38
Resistance index (KYSE 70TR; KYSE 70TR vs KYSE 70, 24 h IC50): 7.69
Resistance index (KYSE 70TR; KYSE 70TR vs KYSE 70, 48 h IC50): 56
